Assay results as given in the NIST ThermoML archive (doi:10.1021/je8004479).

Legend:
[1] = xn = mol fraction of the nth substance listed; details: 294 K; for mass density / viscosity: 101 kPa, Liquid; for mass density: Vibrating tube method
[2] = refractive index (Na D-line) (dimensionless); xn = mol fraction of the nth substance listed; details: 294 K, 101 kPa, Liquid, Standard Abbe refractometry

CCO [ethanol] + OCC(O)CO
x1 = 1
Details | mass density [kg/m3] | refractive index | surface tension liquid-gas [mN/m] | viscosity [mPa·s]
[1] | 789.91 | – | 22.2 | 1.214
[2] | – | 1.3618 | – | –

OCC(O)CO [glycerol] + CCO
Details | mass density, [1] [kg/m3] | refractive index, [2] | surface tension liquid-gas, [1] [mN/m] | viscosity, [1] [mPa·s]
x2 = 0 | 1261.51 | 1.474 | 63.1 | 1390
x2 = 0.084 | 1233.48 | 1.468 | 52 | 800.5
x2 = 0.1222 | 1220.3 | 1.466 | 48.8 | 627.9
x2 = 0.1761 | 1201.19 | 1.4619 | 43 | 450
x2 = 0.2037 | 1191.35 | 1.4592 | 41.7 | 385.1
x2 = 0.2385 | 1178.37 | 1.4562 | 39.4 | 270
x2 = 0.2789 | 1162.98 | 1.4528 | 35.8 | 220.5
x2 = 0.351 | 1134.3 | 1.447 | 33.2 | 141.4
x2 = 0.4138 | 1108.32 | 1.4392 | 29.7 | 80.71
x2 = 0.4841 | 1077.53 | 1.4326 | 28.5 | 54.01
x2 = 0.5497 | 1047.03 | 1.4253 | 27.1 | 31.52
x2 = 0.6046 | 1020.27 | 1.4179 | 25.1 | 20.31
x2 = 0.6526 | 995.96 | 1.4131 | 24.3 | 16.7
x2 = 0.7451 | 946.41 | 1.4016 | 23.5 | 9.096
x2 = 0.7984 | 916.05 | 1.3934 | 23.5 | 5.217
x2 = 0.8336 | 895.63 | 1.3885 | 23 | 4.1
x2 = 0.8777 | 868.79 | 1.3815 | 22.5 | 3.037
x2 = 0.9353 | 832.89 | 1.3727 | 22.4 | 1.898
x2 = 0.9596 | 816.85 | 1.3681 | 22.3 | 1.49
